Several values for one entry are separate records, joined by “and”; a condition that tells them apart may be missing. Identical values can stand only once. Counter-ions that a name gives are not always drawn. Like-named read-outs stand apart in the source and are kept apart here.
How the values were obtained:
[1] = system: human leukemia MV4-11 cell line; settings: MV4-11 human leukemia cell line; cited from earlier work
[2] = system: normal mice fibroblast BALB/3T3; assay: Cytotoxicity against normal fibroblasts, SRB, BALB/3T3; format: cell-based, mouse; settings: mean ± SD
Method: (§1) MV4-11 cells were cultured in the RPMI 1640 medium (IIET, Wroclaw) supplemented with 2 mM L-glutamine and 1.0 mM sodium pyruvate, 10% fetal bovine serum (all from Sigma Aldrich, Germany). HCT116 and A549 cells were cultured in the RPMI1640 + OptiMEM (50:50) medium (IIET, Wroclaw) supplemented with 2 mM L-glutamine and 5% fetal bovine serum (all from Sigma Aldrich, Germany), BALB/3T3 cells were cultured in Dulbecco medium (IIET, Wroclaw) supplemented with 2 mM L-glutamine and 1.0 mM sodium pyruvate, 10% fetal bovine serum (all from Sigma Aldrich, Germany). All culture medium was supplemented with 100 units/mL penicillin and […] streptomycin (both from Polfa, Tarchomin S.A., Warsaw, Poland). All cell lines were grown at 37 °C with 5% CO2 humidified atmosphere.
(§2) Test solutions of the compounds tested (1 mg/mL) were prepared by dissolving the substances in 100 μL of DMSO completed with 900 μL of tissue culture medium. Afterward, the tested compounds were diluted in culture medium to reach the final concentrations of 10, 1, 0.1, 0.01 μg/mL. Twenty four hours prior to the addition of the tested compounds, the cells were plated in 96-well plates (Sarstedt, Germany) at a density of 1 × 10^4 or 0.5× 10^4 (HCT116) cells per well. The assay was performed after 72 h of exposure to varying concentrations of the tested agents. The in vitro cytotoxic effect of all agents was examined using the MTT (for MV4-11 cell line) or SRB (for A549, HCT116 and BALB/3T3 cell lines) assay. The results were calculated as an IC50 (inhibitory concentration 50)–the dose of tested agent that inhibits proliferation of 50% of the cell population. Each compound in each concentration was tested in triplicate in a single experiment, which was repeated 3–5 times.

[3] = system: A549, human non-small-cell lung adenocarcinoma cell line; assay: Antiproliferative assay in vitro, SRB, A549; format: cell-based; settings: mean ± SD
Method: as §1, §2

[4] = system: HCT116, human colon cancer cell line; assay: Antiproliferative assay in vitro, SRB, HCT116; format: cell-based; settings: mean ± SD
Method: as §1, §2

[5] = system: human leukemia MV4-11 cell line; assay: Antiproliferative assay in vitro, MTT, MV4-11; format: cell-based; settings: mean ± SD
Method: as §1, §2

[6] = system: A549, human non-small-cell lung adenocarcinoma cell line; set-up: method as in PMID 21207937; settings: cited from earlier work
[7] = system: HCT116, human colon cancer cell line; set-up: method as in PMID 21207937; settings: cited from earlier work
[8] = Mus musculus, BALB/3T3, 72 h exposure
[9] = Homo sapiens, A549, 72 h exposure
[10] = Homo sapiens, HCT-116, 72 h exposure
[11] = Homo sapiens, MV4-11, 72 h exposure

Structure (SMILES) | IC50 [2, 8] [nM] | IC50 [3, 9] [nM] | IC50 [4, 10] [nM] | IC50 [5, 11] [nM] | IC50 ([5]; 72 h exposure) | IC50 ([2]; 72 h exposure) [nM] | IC50 ([3]; 72 h exposure) [nM] | IC50 ([4]; 72 h exposure) [nM] | further results
Cn1c2nc3ccccc3c-2c(NCCCN)c2ccccc21 [Compound 4a, N^1-(5-methyl-5H-indolo[2,3-b]quinolin-11-yl)propane-1,3-diamine] | – | – | – | – | – | – | – | – | IC50 [1]: 66 ± 23 nM
COC(=O)c1ccc2c(c1)c(NCCCN)c1c3ccccc3nc-1n2C [Compound 4d, methyl 11-(3-aminopropylamino)-5-methyl-5H-indolo[2,3-b]quinoline-2-carboxylate] | 768 ± 155 | 649 ± 80 | 130 ± 14 | – | – | – | – | – | IC50 [1]: 86 ± 20 nM
NCCCNc1nc2ccccc2c2[nH]c3ccccc3c12 [Compound 6, 6-(3-aminopropylamino)-11H-indolo[3,2-c]quinoline] | 1050 ± 127 | 172 ± 52 | 258 ± 107 | 124 ± 10 | – | – | – | – | –
CC1CCC2C(C)C(OC(=O)CCC(=O)NCCCNc3c4c5ccccc5nc-4n(C)c4ccccc34)OC3OC4(C)CCC1C32OO4 (centres unmarked) [Compound 7a, Artesunate-[N^1-(5-methyl-5H-indolo[2,3-b]quinolin-11-yl)propane-1,3-diamine] hybrid] | – | – | – | – | 286 ± 79 nM | – | – | – | –
CC1CCC2C(C)C(OC(=O)CCC(=O)NCC(C)(C)CNc3c4c5ccccc5nc-4n(C)c4ccc(Cl)cc34)OC3OC4(C)CCC1C32OO4 (centres unmarked) [Compound 7b, Artesunate-[N^1-(2-chloro-5-methyl-5H-indolo[2,3-b]quinolin-11-yl)-2,2-dimethjylpropane-1,3-diamine] hybrid] | – | – | – | – | ~72 nM and 72 nM | 6420 ± 996 | 4560 ± 2090 | 893 ± 397 | –
CC1CCC2C(C)C(OC(=O)CCC(=O)NCC(C)(C)CNc3c4c5ccccc5nc-4n(C)c4ccc(Br)cc34)OC3OC4(C)CCC1C32OO4 (centres unmarked) [Compound 7c, Artesunate-[N^1-(2-bromo-5-methyl-5H-indolo[2,3-b]quinolin-11-yl)-2,2-dimethylpropane-1,3-diamine] hybrid] | – | – | – | – | 242 ± 31 nM | – | – | – | –
COC(=O)c1ccc2c(c1)c(NCCCNC(=O)CCC(=O)OC1OC3OC4(C)CCC5C(C)CCC(C1C)C35OO4)c1c3ccccc3nc-1n2C (centres unmarked) [Compound 7d, Artesunate-[methyl 11-(3-aminopropylamino)-5-methyl-5H-indolo[2,3-b]quinoline-2-carboxylate] hybride] | – | – | – | – | 148 ± 15 nM | 4950 ± 220 | 3660 ± 535 | 1760 ± 329 | –
COC(=O)c1ccc2c(c1)c(NCC(C)(C)CNC(=O)CCC(=O)OC1OC3OC4(C)CCC5C(C)CCC(C1C)C35OO4)c1c3ccccc3nc-1n2C (centres unmarked) [Compound 7e, Artesunate-[methyl 11-(3-amino-2,2-dimethylpropylamino)-5-methyl-5H-indolo[2,3-b]quinoline-2-carboxylate] hybrid] | – | – | – | – | 75 ± 1 nM | 5940 ± 1160 | 5060 ± 911 | 2210 ± 687 | –
CC1CCC2C(C)C(OC(=O)CCC(=O)NCCCNc3c4ccccc4nc4c3[nH]c3ccccc34)OC3OC4(C)CCC1C32OO4 (centres unmarked) [Compound 8, Artesunate-[11-(3-aminopropylamino)-10H-indolo[3,2-b]quinoline] hybrid] | 2720 ± 731 | 1330 ± 586 | 557 ± 85 | 286 ± 127 | – | – | – | – | –
CC1CCC2C(C)C(OC(=O)CCC(=O)NCCCNc3nc4ccccc4c4[nH]c5ccccc5c34)OC3OC4(C)CCC1C32OO4 (centres unmarked) [Compound 9] | 4980 ± 471 | 1810 ± 516 | 855 ± 235 | 128 ± 36 | – | – | – | – | –
C[C@H]1[C@@H](O)O[C@@H]2O[C@@]3(C)CC[C@H]4[C@H](C)CC[C@@H]1[C@@]24OO3 [DHA (2), dihydroartemisinin] | – | – | – | – | – | – | – | – | IC50 [6]: > 20000 nM; IC50 [7]: 1340 ± 1060 nM
N.N.[Cl][Pt][Cl] [cisplatin, reference compound] | – | – | – | – | 2820 ± 450 nM | 9500 ± 500 | 8960 ± 3330 | 9460 ± 1300 | –
COc1cccc2c1C(=O)c1c(O)c3c(c(O)c1C2=O)C[C@@](O)(C(=O)CO)C[C@@H]3O[C@H]1C[C@H](N)[C@H](O)[C@H](C)O1 [doxorubicin HCl, reference compound] | – | – | – | 6 ± 2 | – | – | – | – | –
